Each block holds one compound with its values, some of them ahead of it. Calls of active or inactive are those of the source.
Columns and labels:
Coagulation factor XII = target: T1, Coagulation factor XII (Homo sapiens, UniProt P00748); assay: FXIIa inhibitor potency, concentration-response, biochemical (AID 716); type: functional
T1 sequence (P00748 whole entry): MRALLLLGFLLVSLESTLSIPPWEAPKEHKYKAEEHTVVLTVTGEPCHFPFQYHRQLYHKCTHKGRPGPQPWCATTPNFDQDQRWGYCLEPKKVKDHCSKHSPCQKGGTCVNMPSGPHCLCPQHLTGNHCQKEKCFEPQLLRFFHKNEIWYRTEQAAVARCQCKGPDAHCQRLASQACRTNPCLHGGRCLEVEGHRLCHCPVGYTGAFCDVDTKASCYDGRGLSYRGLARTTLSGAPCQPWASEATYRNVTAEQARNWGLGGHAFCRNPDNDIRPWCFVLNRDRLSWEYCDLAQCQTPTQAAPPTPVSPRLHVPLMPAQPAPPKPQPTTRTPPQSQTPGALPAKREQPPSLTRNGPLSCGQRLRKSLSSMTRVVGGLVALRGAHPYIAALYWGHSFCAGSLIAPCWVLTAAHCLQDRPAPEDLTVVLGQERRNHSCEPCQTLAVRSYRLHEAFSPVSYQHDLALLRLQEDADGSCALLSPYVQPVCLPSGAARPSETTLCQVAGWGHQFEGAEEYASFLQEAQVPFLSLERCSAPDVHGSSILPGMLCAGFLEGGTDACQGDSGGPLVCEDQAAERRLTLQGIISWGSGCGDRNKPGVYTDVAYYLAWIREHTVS

[1] = target: T2, Voltage-gated N-type calcium channel alpha-1B subunit/Amyloid beta A4 precursor protein-binding family A member 1 (Homo sapiens, UniProt Q00975+Q02410); type: protein assay
[2] = target: T2, Voltage-gated N-type calcium channel alpha-1B subunit/Amyloid beta A4 precursor protein-binding family A member 1; type: protein assay; remark: listed apart in the source
Caspase-3 = target: T3, Caspase-3 (Homo sapiens, UniProt P42574); assay: procaspase-3 activators, dose response, biochemical, absorbance (AID 489014)
T3 sequence (P42574 whole entry): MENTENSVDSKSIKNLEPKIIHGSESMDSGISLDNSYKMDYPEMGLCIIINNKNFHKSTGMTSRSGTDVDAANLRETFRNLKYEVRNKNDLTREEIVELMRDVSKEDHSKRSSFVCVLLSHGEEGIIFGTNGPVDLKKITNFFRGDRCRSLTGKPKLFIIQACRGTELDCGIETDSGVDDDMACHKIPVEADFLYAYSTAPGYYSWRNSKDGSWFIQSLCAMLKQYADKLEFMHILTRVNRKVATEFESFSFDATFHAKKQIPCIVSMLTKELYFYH

Caspase-7 = Caspase-7 (Homo sapiens, UniProt P55210); assay: procaspase-7 activators, dose response, counter-screen for procaspase-3 activator project, biochemical, absorbance (AID 489013)
Prothrombin = Prothrombin (Bos taurus, UniProt P00735); assay: thrombin inhibition, dose response, biochemical, fluorescence polarization, uHTS hits (AID 602369); type: functional
Estrogen receptor beta [3] = target: T4, Estrogen receptor beta (Homo sapiens, UniProt Q92731);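 note: recombinant ER-beta bound to coactivator SRC1 peptide in presence of estradiol agonist; inhibitors block coactivator peptide binding and lower the FRET signal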
[4] = inhibition of K1F phage lysis, E. coli UTI89, bacterial capsule biogenesis inhibitors, alamar blue (AID 488966); type: functional
[5] = target: Induced myeloid leukemia cell differentiation protein Mcl-1 (Homo sapiens, UniProt Q07820); type: functional
[6] = inhibitors of Bluetongue virus cytopathic effect, confirmation, arbovirus, BSR cells (AID 1250); type: functional;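 note: protection from viral cytopathic effect measured as cell viability by ATP luminescence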
Large T antigen = Large T antigen (Simian virus 40, UniProt P03070); type: functional, Betapolyomavirus macacae;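 note: Confirmatory-stage PubChem screen for compounds that inhibit SV40 T antigen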
[7] = target: 72 kDa type IV collagenase (Homo sapiens, UniProt P08253); assay: Dose Response validation of uHTS RPN11 inhibitor hits using a MMP-2 Fluorescence assay.; type: functional
Protein skinhead-1 = target: T5, Protein skinhead-1 (Caenorhabditis elegans, UniProt P34707); type: functional
T5 sequence (P34707 whole entry): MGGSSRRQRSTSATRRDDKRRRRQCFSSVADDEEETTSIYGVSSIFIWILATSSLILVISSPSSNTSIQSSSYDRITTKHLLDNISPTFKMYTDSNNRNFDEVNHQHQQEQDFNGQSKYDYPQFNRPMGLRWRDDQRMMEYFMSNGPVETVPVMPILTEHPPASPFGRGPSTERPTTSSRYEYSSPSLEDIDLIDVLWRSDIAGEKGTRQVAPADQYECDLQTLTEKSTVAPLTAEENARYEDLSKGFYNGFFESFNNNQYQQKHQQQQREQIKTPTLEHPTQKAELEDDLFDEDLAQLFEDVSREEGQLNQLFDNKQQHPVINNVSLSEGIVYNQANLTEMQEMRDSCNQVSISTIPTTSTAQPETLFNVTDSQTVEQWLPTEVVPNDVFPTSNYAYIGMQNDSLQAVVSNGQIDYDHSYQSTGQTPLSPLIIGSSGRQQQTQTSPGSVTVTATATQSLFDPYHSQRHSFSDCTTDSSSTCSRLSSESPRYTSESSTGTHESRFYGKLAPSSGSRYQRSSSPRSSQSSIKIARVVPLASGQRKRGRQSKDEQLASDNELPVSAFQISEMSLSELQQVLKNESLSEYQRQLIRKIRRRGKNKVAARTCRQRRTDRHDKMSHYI

[8] = target: 26S proteasome non-ATPase regulatory subunit 14 (Homo sapiens, UniProt O00487); assay: inhibition of proteasome subunit RPN11 – biochemical, fluorescence polarization, uHTS hits, confirmation (AID 602368); type: functional
Protein Tat = Protein Tat (Human immunodeficiency virus type 1 group M subtype B (isolate HXB2)(HIV-1), UniProt P04608); type: functional;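 note: tat binding to TAR RNA read out by fluorescence polarization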
Estrogen receptor beta [9] = target: T4, Estrogen receptor beta; assay: ERβ–SRC-3 coactivator interaction inhibitors, confirmation, orthogonal assay, biochemical, ELISA, streptavidin-HRP readout (AID 1060)

T4 sequence (Q92731 whole entry): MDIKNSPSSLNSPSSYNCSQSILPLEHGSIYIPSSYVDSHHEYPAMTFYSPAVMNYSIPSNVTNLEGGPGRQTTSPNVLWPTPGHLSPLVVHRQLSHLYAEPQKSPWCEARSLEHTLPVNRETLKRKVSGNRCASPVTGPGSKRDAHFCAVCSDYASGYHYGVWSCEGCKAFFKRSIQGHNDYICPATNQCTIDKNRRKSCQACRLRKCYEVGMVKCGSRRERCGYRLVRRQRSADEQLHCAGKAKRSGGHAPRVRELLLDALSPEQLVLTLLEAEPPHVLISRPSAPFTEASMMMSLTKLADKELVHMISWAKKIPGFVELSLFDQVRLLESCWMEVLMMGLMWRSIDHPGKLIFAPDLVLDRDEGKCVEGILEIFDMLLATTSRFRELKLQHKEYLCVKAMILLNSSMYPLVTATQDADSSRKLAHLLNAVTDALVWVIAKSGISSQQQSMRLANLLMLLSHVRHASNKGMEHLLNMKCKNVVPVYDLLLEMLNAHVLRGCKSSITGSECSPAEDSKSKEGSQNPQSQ
T2 sequence (Q00975 whole entry): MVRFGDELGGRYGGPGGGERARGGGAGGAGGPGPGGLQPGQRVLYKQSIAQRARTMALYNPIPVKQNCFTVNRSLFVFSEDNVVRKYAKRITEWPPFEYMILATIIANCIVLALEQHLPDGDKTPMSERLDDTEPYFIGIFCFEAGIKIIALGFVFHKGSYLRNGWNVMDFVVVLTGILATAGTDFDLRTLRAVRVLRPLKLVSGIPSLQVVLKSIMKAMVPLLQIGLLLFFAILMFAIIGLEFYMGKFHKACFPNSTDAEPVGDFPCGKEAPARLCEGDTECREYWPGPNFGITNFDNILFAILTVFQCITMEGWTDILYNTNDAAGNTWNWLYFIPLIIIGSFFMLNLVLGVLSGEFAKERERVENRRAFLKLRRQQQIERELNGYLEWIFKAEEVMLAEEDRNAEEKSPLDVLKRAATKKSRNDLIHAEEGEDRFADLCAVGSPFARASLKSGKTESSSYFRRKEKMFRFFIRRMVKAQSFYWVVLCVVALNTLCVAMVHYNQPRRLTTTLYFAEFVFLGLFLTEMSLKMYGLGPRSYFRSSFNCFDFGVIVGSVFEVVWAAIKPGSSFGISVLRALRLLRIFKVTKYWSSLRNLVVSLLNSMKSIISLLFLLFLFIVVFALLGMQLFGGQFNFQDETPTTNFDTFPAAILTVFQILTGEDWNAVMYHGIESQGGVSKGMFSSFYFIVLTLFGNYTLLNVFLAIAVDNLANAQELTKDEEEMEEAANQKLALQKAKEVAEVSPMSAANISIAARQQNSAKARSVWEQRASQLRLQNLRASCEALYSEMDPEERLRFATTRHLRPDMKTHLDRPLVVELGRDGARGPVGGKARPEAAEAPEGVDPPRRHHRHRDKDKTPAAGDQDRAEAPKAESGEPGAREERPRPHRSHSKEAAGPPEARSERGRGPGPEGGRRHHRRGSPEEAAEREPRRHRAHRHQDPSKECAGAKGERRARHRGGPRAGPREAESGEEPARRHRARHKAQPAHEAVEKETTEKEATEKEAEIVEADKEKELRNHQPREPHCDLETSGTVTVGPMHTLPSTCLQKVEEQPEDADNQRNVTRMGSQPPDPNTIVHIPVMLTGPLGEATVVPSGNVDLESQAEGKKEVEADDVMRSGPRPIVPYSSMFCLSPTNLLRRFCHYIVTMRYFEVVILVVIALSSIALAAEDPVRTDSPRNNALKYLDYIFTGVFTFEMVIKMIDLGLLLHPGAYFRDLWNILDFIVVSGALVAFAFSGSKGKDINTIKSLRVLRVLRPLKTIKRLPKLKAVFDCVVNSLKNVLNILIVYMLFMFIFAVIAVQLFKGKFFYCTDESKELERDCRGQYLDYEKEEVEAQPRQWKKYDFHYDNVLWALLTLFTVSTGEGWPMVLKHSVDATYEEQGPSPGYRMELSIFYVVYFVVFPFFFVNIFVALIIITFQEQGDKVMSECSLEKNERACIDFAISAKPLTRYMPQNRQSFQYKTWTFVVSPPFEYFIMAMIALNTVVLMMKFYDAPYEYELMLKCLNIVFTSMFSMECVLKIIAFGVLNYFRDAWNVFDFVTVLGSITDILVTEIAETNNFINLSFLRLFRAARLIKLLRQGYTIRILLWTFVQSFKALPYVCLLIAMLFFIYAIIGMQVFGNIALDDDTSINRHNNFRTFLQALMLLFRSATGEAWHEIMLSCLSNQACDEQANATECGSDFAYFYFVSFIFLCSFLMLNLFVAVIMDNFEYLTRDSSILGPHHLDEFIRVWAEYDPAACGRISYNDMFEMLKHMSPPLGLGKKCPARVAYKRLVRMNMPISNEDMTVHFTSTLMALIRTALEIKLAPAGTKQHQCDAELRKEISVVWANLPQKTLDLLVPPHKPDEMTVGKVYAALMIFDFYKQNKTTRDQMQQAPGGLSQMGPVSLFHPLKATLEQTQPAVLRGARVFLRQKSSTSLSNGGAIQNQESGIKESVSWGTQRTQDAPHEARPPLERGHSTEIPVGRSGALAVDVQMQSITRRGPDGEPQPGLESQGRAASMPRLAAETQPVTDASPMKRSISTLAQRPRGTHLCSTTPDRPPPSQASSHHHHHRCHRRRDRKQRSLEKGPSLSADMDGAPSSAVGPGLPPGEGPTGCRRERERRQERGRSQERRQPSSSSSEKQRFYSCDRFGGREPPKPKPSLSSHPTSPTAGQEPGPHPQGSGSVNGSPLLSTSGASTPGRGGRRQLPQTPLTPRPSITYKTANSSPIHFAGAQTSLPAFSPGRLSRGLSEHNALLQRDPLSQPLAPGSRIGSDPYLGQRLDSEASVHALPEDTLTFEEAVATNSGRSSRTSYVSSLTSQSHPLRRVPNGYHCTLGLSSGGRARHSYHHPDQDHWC
T2 sequence (Q02410 whole entry): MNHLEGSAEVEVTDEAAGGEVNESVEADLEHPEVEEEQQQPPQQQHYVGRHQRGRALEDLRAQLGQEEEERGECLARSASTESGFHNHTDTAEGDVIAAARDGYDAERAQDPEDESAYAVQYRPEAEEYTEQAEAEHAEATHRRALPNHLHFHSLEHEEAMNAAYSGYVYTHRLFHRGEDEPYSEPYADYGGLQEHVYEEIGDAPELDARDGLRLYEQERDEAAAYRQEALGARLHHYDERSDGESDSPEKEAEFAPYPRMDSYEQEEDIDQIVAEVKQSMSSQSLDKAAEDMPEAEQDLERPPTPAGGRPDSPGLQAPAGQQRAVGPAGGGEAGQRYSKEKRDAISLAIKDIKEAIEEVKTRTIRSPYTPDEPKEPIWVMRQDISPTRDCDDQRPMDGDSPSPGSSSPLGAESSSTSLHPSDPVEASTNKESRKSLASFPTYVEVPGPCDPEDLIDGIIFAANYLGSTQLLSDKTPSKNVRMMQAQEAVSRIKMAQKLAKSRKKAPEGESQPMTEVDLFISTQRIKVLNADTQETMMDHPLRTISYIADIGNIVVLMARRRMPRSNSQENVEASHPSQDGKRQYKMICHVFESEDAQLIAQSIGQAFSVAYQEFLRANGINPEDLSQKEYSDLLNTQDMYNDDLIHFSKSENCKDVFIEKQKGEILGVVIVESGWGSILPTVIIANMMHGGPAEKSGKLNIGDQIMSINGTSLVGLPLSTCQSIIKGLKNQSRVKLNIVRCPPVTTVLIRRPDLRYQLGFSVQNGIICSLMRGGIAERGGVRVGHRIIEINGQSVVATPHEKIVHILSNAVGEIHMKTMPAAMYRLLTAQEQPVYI
Induced myeloid leukemia cell differentiation protein Mcl-1, sequence (Q07820 whole entry): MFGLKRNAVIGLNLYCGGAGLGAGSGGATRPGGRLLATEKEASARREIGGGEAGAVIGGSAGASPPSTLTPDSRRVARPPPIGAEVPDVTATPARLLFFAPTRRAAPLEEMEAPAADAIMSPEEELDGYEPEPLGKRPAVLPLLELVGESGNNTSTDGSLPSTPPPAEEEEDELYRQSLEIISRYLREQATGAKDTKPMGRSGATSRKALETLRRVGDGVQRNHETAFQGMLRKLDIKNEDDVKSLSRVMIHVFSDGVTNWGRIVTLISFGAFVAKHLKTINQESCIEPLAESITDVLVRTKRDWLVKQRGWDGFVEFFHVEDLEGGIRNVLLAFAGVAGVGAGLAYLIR
72 kDa type IV collagenase, sequence (P08253 whole entry): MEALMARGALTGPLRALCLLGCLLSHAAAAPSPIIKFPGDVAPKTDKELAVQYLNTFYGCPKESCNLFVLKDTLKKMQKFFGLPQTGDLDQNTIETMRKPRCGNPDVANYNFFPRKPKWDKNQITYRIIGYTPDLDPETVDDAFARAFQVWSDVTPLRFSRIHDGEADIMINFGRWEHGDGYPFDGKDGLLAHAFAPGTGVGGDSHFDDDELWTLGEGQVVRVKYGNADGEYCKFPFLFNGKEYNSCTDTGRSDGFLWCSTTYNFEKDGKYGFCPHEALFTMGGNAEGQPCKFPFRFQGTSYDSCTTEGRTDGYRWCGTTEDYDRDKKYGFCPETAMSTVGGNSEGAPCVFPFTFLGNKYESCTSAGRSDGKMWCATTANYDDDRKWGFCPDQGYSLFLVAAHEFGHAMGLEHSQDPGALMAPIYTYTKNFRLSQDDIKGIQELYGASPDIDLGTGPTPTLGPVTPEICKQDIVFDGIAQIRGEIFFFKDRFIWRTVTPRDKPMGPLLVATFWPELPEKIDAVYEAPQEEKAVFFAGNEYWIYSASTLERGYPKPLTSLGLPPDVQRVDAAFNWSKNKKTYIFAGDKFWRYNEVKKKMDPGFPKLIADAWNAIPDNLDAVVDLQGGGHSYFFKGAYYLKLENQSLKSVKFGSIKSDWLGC
26S proteasome non-ATPase regulatory subunit 14, sequence (O00487 whole entry): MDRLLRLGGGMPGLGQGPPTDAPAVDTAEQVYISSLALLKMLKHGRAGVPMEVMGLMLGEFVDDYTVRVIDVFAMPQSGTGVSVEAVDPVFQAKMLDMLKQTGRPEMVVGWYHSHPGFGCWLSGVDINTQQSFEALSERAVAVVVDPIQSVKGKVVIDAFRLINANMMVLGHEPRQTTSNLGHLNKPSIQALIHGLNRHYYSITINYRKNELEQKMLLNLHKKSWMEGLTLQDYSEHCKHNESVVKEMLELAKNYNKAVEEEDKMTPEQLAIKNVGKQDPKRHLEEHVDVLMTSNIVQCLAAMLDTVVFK

IC50 (Coagulation factor XII): > 50 µM (inactive)
SMILES: COc1cc(NC(=O)COc2cccc(OC)c2)cc(OC)c1

IC50 [1]: 8.23 µM (active)
IC50 [2]: 46.7 µM (active)
EC50 (Caspase-3): > 85.2 µM (inactive)
EC50 (Caspase-7): > 85.2 µM (inactive)
SMILES: Cc1cc2nn(-c3cccc4ccccc34)nc2cc1N

IC50 (Prothrombin): 22.8 µM (active)
IC50 (Estrogen receptor beta [3]): 2.65 µM (active)
IC50 [5]: 3.18 µM (active)
IC50 [6]: 59.4 µM (active)
IC50 (Large T antigen): 29.3 µM (active)
IC50 [7]: 6.34 µM (active)
IC50 (Protein skinhead-1): > 100 µM (inactive)
IC50 [8]: 13.7 µM (active)
IC50 (Protein Tat): 1.98 µM (inconclusive)
IC50 (Estrogen receptor beta [9]): > 50 µM (not active)
SMILES: CCCC1=NN2C(=N)/C(=C\c3ccc(SCc4ccco4)o3)C(=O)N=C2S1
IC50 [4]: > 75 µM (active)
